Numbers after ± are expanded uncertainties.
Test: activity coefficient (dimensionless); of the first substance listed, at infinite dilution; xn = mol fraction of the nth substance listed
Details: 101 kPa, Liquid, Chromatography, x1 = 0

Row | SMILES | activity coefficient (298.15 K) | activity coefficient (301.15 K) | activity coefficient (303.15 K) | activity coefficient (305.15 K) | activity coefficient (308.15 K) | activity coefficient (310.15 K) | activity coefficient (313.15 K) | activity coefficient (315.15 K) | activity coefficient (318.15 K) | activity coefficient (320.15 K) | activity coefficient (323.15 K) | activity coefficient (325.15 K) | activity coefficient (328.15 K) | activity coefficient (330.15 K) | activity coefficient (333.15 K) | activity coefficient (338.15 K) | activity coefficient (299.15 K) | activity coefficient (306.15 K) | activity coefficient (311.15 K)
1 | C=CC=O [2-propenal] + O | 20.9 ± 0.8 | 21.5 ± 0.8 | 21.4 ± 0.8 | 21.7 ± 0.8 | 22.4 ± 0.8 | 22.6 ± 0.8 | 23.1 ± 0.9 | 23.5 ± 0.9 | 24 ± 0.9 | 24.1 ± 0.9 | 24.1 ± 0.9 | 24.3 ± 0.9 | 24.3 ± 0.9 | 24.5 ± 0.9 | 24.4 ± 1 |  |  |  | 
2 | CCCCO [butan-1-ol] + O |  |  | 52 ± 3 |  | 57 ± 2 |  | 58 ± 3 |  | 64 ± 3 |  | 69 ± 3 |  | 72 ± 3 |  | 80 ± 3 | 78 ± 3 |  |  | 
3 | C/C=C/C=O [(E)-2-butenal] + O | 39 ± 1.6 |  |  |  | 42.8 ± 1.6 |  | 44.4 ± 1.8 |  | 46.2 ± 1.9 |  | 47 ± 2.1 |  | 47.3 ± 2 |  | 48 ± 1.9 |  |  |  | 
4 | CCCCC=O [pentanal] + O | 220 ± 8 |  | 260 ± 10 |  | 276 ± 10 |  | 302 ± 12 |  | 324 ± 12 |  | 339 ± 14 |  | 350 ± 14 |  |  |  |  |  | 
5 | c1ccoc1 [furan] + O | 415 ± 20 | 403 ± 19 | 397 ± 19 | 394 ± 19 | 372 ± 19 |  | 356 ± 20 |  |  |  |  |  |  |  |  |  | 412 ± 20 | 380 ± 19 | 366 ± 22
